# ChEMBL document CHEMBL1201862, “PubChem BioAssay data set” (2004)
# Activity calls are given as the source filed them.
# Key:
# [1] = biological target: T1, Corticotropin-releasing factor receptor 2/Corticotropin-releasing factor-binding protein (Homo sapiens, UniProt P24387+Q13324); experiment: activators of CRF receptor 2 with binding protein – uHTS hits, confirmation (AID 602473); format: functional; settings: read-out: EC50_Mean
# T1 sequence (Q13324 whole entry): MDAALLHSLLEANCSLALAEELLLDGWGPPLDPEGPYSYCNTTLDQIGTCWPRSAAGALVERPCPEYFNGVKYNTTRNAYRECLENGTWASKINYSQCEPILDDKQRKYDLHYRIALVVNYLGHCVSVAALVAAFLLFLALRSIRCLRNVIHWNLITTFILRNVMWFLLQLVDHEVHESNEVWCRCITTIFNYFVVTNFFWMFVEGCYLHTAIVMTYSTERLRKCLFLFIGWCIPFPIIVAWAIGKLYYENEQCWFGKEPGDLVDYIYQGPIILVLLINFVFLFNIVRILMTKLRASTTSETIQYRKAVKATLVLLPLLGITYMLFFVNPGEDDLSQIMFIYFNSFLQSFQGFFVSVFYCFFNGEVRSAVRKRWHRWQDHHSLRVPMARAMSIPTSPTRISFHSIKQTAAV
# T1 sequence (P24387 whole entry): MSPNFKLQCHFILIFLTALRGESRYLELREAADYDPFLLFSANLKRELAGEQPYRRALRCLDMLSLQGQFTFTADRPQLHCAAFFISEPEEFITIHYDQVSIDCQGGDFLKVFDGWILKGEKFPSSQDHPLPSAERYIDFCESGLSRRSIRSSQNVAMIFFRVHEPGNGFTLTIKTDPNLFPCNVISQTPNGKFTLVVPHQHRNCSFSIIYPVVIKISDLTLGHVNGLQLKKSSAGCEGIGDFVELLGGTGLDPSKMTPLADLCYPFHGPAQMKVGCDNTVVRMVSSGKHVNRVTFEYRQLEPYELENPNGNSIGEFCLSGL
# [2] = biological target: T1, Corticotropin-releasing factor receptor 2/Corticotropin-releasing factor-binding protein; experiment: Dose Response confirmation of uHTS hits for small molecule antagonists of the CRF-binding protein and CRF-R2 receptor complex.; format: functional; settings: read-out: IC50_Mean
# [3] = Luminescence Cell-Based Dose Response HTS to Identify Activators of Luciferase Translation or Activity in H4 […] Cells. [Related pubchem assays: 1829 (Project Summary), 1814 (Primary HTS)]; format: functional
# H4 = experiment: Luminescence Cell-Based Dose Response HTS to Identify Activators of 5'UTR Stem-Loop Driven Prion Protein mRNA Translation in H4 Neuroglioblastoma Cells. [Related pubchem assays: 1829 (Project Summary), 1814 (Primary HTS)]; format: functional; settings: Homo sapiens
# Cytochrome P450 2C19 = Cytochrome P450 2C19 (Homo sapiens, UniProt P33261); experiment: Cytochrome panel assay with activity outcomes. Panel member name: p450-cyp2c19 Compounds with AC50 equal or less than 10 uM are considered active; format: functional
# Sequence of Cytochrome P450 2C19 (P33261 whole entry): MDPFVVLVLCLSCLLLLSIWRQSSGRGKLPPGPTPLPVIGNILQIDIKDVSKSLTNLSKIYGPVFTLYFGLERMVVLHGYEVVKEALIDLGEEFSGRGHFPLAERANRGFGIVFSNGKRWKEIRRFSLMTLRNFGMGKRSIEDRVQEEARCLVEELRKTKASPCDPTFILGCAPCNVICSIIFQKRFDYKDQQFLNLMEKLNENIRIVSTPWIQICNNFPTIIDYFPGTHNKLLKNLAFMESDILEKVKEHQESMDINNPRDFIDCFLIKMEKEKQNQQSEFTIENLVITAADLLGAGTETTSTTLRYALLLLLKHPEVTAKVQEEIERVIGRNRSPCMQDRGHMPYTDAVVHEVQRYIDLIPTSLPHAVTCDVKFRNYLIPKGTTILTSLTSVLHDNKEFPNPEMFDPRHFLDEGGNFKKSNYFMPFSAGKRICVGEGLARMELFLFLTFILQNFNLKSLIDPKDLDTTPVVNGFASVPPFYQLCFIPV
# Streptokinase A = biological target: T2, Streptokinase A (Streptococcus pyogenes serotype M1, UniProt P10520); experiment: S. pyogenes streptokinase expression inhibitors, potency, dose response, plasminogen activation absorbance, OD405 (AID 1914); format: functional, Streptococcus pyogenes M1 GAS;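 further: secreted streptokinase activity via plasminogen activation per viability signal from cell pellet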
# T2 sequence (P10520 whole entry): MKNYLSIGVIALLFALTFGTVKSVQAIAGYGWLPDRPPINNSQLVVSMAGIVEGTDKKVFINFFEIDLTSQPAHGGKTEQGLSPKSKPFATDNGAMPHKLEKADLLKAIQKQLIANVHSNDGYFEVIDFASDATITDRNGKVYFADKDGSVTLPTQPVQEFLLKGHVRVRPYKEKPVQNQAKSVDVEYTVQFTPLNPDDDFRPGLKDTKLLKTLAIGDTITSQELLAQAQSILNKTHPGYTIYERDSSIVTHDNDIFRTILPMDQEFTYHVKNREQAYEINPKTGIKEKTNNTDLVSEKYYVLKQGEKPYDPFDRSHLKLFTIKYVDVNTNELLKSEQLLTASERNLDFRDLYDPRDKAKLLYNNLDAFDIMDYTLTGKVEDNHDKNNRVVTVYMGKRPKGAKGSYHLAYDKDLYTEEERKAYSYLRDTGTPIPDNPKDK
# [4] = biological target: T3, Replicative DNA helicase DnaB (Mycobacterium tuberculosis, UniProt P9WMR3); experiment: DnaB intein splicing inhibitors, dose response, biochemical, cell-free fluorescence (AID 449749); format: functional
# T3 sequence (P9WMR3 whole entry): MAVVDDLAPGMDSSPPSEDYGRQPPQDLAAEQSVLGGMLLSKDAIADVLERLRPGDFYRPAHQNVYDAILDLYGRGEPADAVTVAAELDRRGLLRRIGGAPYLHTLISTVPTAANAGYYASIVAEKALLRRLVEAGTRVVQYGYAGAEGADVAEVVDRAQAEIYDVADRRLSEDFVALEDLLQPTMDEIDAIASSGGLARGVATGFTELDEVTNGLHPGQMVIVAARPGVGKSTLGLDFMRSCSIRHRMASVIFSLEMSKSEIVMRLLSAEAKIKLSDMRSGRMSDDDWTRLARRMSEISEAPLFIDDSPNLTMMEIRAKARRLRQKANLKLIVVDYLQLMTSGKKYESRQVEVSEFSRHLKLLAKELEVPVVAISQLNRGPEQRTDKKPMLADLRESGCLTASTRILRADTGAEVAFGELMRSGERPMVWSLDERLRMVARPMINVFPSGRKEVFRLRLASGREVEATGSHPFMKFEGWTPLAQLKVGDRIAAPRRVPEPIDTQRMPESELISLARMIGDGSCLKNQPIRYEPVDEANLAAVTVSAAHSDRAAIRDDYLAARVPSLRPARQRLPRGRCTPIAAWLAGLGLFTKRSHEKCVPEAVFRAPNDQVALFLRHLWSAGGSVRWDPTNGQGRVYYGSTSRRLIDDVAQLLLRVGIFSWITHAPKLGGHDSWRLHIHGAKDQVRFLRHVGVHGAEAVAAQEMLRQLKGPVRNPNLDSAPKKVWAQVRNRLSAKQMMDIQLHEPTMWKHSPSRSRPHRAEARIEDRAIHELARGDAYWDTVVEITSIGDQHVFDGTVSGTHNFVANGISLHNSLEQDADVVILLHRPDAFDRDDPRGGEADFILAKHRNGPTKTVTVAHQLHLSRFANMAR
# Protein RecA = biological target: T4, Protein RecA (Mycobacterium tuberculosis, UniProt P9WHJ3); experiment: Fluorescence Cell-Free Homogeneous Dose Retest to Identify Inhibitors of RecA-Intein Splicing Activity. [Related pubchem assays (depositor defined):AID2097, AID2223, AID489010, AID492950]; format: functional
# T4 sequence (P9WHJ3 whole entry): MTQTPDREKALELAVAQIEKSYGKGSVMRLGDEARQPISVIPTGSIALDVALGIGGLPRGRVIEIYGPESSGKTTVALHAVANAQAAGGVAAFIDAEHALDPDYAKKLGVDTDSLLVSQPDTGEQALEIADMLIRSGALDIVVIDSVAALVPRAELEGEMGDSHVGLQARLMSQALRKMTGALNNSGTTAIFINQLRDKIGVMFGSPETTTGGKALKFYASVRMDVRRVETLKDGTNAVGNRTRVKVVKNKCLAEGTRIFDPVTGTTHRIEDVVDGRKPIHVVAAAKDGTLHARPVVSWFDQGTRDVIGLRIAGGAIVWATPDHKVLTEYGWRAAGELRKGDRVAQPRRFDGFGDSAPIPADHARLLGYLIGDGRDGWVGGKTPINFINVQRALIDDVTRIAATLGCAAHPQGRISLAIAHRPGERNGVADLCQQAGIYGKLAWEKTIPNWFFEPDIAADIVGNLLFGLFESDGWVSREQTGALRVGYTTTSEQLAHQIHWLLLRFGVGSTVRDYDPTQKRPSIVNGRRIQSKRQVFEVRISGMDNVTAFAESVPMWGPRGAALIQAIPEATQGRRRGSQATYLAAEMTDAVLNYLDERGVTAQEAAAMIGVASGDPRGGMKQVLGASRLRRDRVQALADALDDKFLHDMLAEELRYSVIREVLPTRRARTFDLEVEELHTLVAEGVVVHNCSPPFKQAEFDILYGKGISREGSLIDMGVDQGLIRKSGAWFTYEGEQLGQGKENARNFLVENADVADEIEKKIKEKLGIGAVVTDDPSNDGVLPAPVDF
# Cytochrome P450 3A4 = Cytochrome P450 3A4 (Homo sapiens, UniProt P08684);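 further: CYP3A4 tested as one member of a cytochrome P450 panel screen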
# Sequence of Cytochrome P450 3A4 (P08684 whole entry): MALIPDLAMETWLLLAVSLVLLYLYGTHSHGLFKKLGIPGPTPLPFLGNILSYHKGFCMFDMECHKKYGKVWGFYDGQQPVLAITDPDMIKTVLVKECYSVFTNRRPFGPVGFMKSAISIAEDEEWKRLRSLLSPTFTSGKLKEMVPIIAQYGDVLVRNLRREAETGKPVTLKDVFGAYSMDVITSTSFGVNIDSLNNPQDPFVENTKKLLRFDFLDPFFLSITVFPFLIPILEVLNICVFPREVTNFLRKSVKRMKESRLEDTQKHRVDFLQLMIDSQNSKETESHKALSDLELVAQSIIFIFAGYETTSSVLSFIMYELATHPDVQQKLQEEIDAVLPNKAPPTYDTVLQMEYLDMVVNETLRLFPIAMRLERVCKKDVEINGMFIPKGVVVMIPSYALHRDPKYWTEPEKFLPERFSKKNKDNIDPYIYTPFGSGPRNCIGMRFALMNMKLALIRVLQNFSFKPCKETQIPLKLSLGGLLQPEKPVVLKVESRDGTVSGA
# Cytochrome P450 2C9 = Cytochrome P450 2C9 (Homo sapiens, UniProt P11712)
# Sequence of Cytochrome P450 2C9 (P11712 whole entry): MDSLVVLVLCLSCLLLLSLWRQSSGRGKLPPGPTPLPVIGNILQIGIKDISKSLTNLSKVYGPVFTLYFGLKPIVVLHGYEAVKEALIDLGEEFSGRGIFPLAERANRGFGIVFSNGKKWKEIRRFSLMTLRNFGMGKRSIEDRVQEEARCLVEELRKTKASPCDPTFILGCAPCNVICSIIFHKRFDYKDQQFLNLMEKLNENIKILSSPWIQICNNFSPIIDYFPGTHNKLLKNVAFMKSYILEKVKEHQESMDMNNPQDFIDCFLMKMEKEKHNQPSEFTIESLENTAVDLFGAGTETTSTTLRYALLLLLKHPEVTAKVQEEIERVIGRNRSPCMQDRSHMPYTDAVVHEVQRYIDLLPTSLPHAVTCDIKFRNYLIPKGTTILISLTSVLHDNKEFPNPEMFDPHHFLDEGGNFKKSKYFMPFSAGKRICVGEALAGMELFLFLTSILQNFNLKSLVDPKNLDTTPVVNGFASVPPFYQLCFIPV
smiles,measurement,setting,value
O=C1C(=Cc2cccs2)C(=O)c2ccccc21,EC50,[1],> 53 µM (inactive)
same,IC50,[2],> 47.1 µM (inactive)
N#Cc1c(N2CCOCC2)nsc1-c1ccc(C(F)(F)F)cc1,EC50,[3],10.9 µM (active)
same,EC50,H4,24.7 µM (active)
N#C/C(=C\c1ccccc1)c1nc2ccc[nH]c-2n1,AC50,Cytochrome P450 2C19; read-out: AC50,28.2 µM (inconclusive)
Cc1cccc(-c2nc(C[S+]([O-])CC(=O)N3CC(C)CC(C)C3)c(C)o2)c1 (stereo unspecified),EC50,[1],> 53 µM (inactive)
same,IC50,[2],> 47.1 µM (inactive)
O=C1NC(=Nc2ccccn2)SC1Cc1ccc(Cl)cc1 (stereo unspecified),EC50,Streptokinase A,> 150 µM (not active)
O=C(NN1C(=O)CSC1=S)c1cccnc1,EC50,[1],> 53 µM (inactive)
same,IC50,[2],> 47.1 µM (inactive)
CC(=O)N1N=C(c2ccc(C)cc2)OC1c1ccc(C(C)C)cc1 (stereo unspecified),EC50,[3],> 120 µM (not active)
same,EC50,H4,6.68 µM (active)
Cc1ccc(NC(=O)c2cnc(SCC(=O)NCC3CCCO3)n(C)c2=O)cc1C (stereo unspecified),AC50,[4],7.83 µM (active)
same,EC50,Protein RecA,2.23 µM (active)
COc1ccccc1CNc1nc(-c2ccccc2CN(C)C)nc2ccccc12,AC50,Cytochrome P450 2C19; read-out: AC50,25.1 µM (inconclusive)
OC(C#CCN1CCCCCC1)(c1ccccc1)c1cccnc1 (stereo unspecified),EC50,[1],> 53 µM (inactive)
same,IC50,[2],> 47.1 µM (inactive)
CCOC(=O)N1CCN(C(=O)CSc2nnc(-c3ccc(C(C)(C)C)cc3)o2)CC1,EC50,[1],> 53 µM (inactive)
same,IC50,[2],> 47.1 µM (inactive)
O=C1NC(=O)N(CCc2ccc(F)cc2)C(=O)/C1=C/NCCCN1CCOCC1,AC50,Cytochrome P450 2C19,inconclusive
O=c1c(CCc2ccccc2)nc2cnc(Oc3ccccc3)nc2n1C[C@H]1CCCO1,AC50,Cytochrome P450 3A4,0.0794 µM (inconclusive)
same,AC50,Cytochrome P450 2C19; read-out: AC50,39.8 µM (inconclusive)
Cc1cc(C(F)F)n2nc(C(=O)Nc3sc4c(c3C#N)CCC(C)C4)nc2n1 (stereo unspecified),AC50,Cytochrome P450 3A4,15.8 µM (inconclusive)
same,AC50,Cytochrome P450 2C19; read-out: AC50,31.6 µM (inconclusive)
CC1=NN(c2ccccc2)C(=O)C1/C=C1\C(=O)NC(=O)N(c2ccc(C)c(C)c2)C1=O (stereo unspecified),AC50,[4],23.6 µM (active)
same,EC50,Protein RecA,3.37 µM (active)
Cc1sc(NC(=O)/C=C/C(=O)O)c(C(N)=O)c1-c1ccc(C(C)(C)C)cc1,AC50,[4],> 380 µM (inactive)
same,EC50,Protein RecA,5.82 µM (active)
O=C(Nc1ccc(-c2nc3ccccc3s2)c(OC(=O)c2ccccc2)c1)c1ccccc1,EC50,H4,> 120 µM (not active)
CC(C)c1nc2ccccn2c1NC1CCCCC1,AC50,Cytochrome P450 2C9,39.8 µM (inconclusive)
same,AC50,Cytochrome P450 2C19; read-out: AC50,22.4 µM (inconclusive)
CC(C)=CCC/C(C)=C/CO/N=C1/C[C@@H](O)[C@@H](O)[C@@H]2[C@@H]3C(=O)N(Cc4ccccc4)C(=O)[C@H]3CC[C@@H]12,AC50,Cytochrome P450 2C19,inconclusive
O=C1C(Cc2ccccc2)Nc2ncnc(N3CCc4ccccc4C3)c2N1Cc1ccc(Cl)cc1 (stereo unspecified),AC50,[4],> 120 µM (inactive)
same,EC50,Protein RecA,> 380 µM (inconclusive)
O=C(O)C1C2CCC(C2)C1C(=O)NCc1ccco1 (stereo unspecified),AC50,Cytochrome P450 2C19; read-out: AC50,7.94 µM (inconclusive)
COc1ccc(CCNC2=C(Cl)C(=O)N(Cc3ccccc3)C2=O)cc1OC,EC50,[1],> 53 µM (inactive)
same,IC50,[2],> 47.1 µM (inactive)
O=C(/C=C/c1ccc2ccccc2n1)N1CCN(c2ccccc2)CC1,EC50,[1],> 53 µM (inactive)
same,IC50,[2],> 47.1 µM (inactive)
CCNc1ncc2nc(CCc3ccccc3)c(=O)n(-c3ccc(OC)cc3)c2n1,AC50,Cytochrome P450 2C9,15.8 µM (inconclusive)
same,AC50,Cytochrome P450 2C19; read-out: AC50,39.8 µM (inconclusive)
COCCCN1Cc2ccccc2C1=N,AC50,Cytochrome P450 2C9,11.2 µM (inconclusive)
same,AC50,Cytochrome P450 2C19; read-out: AC50,39.8 µM (inconclusive)
Cc1n[nH]c2c1C1(CCN(Cc3ccccc3)CC1)C(C#N)=C(N)O2,AC50,[4],> 380 µM (inactive)
same,EC50,Protein RecA,1.07 µM (active)
CS(=O)(=O)c1ccc(C(=O)CN2C(=O)NC3(CCCc4ccccc43)C2=O)cc1 (stereo unspecified),EC50,[1],> 53 µM (inactive)
same,IC50,[2],> 47.1 µM (inactive)
O=C(CSc1nnnn1-c1ccccc1)NCCCN1CCCC1=O,EC50,[1],> 53 µM (inactive)
same,IC50,[2],> 47.1 µM (inactive)
COc1cc2[nH]c(=O)n(CCCCCC(=O)NC3CCCC3)c(=O)c2cc1OC,EC50,[1],> 53 µM (inactive)
same,IC50,[2],> 47.1 µM (inactive)
CC(C)(C)NC(=O)C(c1ccccn1)N(C(=O)C1CSC(=O)C1)c1cccc(F)c1 (stereo unspecified),EC50,[1],> 53 µM (inactive)
same,IC50,[2],> 47.1 µM (inactive)
CCCc1nnc(SCC(=O)N2CCCCC2C)n1CCCOC (stereo unspecified),AC50,Cytochrome P450 2C9,0.0251 µM (inconclusive)
same,AC50,Cytochrome P450 3A4,15.8 µM (inconclusive)
same,AC50,Cytochrome P450 2C19; read-out: AC50,39.8 µM (inconclusive)
CCOc1ccccc1NC(=O)CCC(=O)O,AC50,Cytochrome P450 2C19; read-out: AC50,3.16 µM (inconclusive)
Cc1ccc(N2CC(C(=O)NC3CCC(C)CC3)CC2=O)cc1 (stereo unspecified),EC50,[1],> 53 µM (inactive)
same,IC50,[2],> 47.1 µM (inactive)
Cc1ccc(/N=c2/sc(C)c(C)n2C)cc1,EC50,[3],13.9 µM (active)
same,EC50,H4,108 µM (active)
